# Assay results taken from US10577363B2, “Substituted piperidine compounds” (EPIZYME, INC., priority 2014, dated 2020).
# Target: SMYD3 (Homo sapiens (Human), UniProt Q9H7B4)
# Assay: SMYD3 biochemical assay (SPA, 3H-SAM methylation of MEKK2 protein substrate)
# Settings: read-out: SMYD3 Biochem IC50 (μM)*
# Method in brief: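 Enzyme: untagged full-length human SMYD3 from E. coli; substrate GST-tagged MEKK2 from insect cells. Buffer 25 mM Tris-Cl pH 8.0, 1 mM TCEP, 0.005% BSG/Tween 20. 30 min compound–enzyme preincubation at RT; 3H-SAM/MEKK2 start; stop with cold SAM (100 uM final); SPA readout in cpm.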
row,IC50 [µM],SMILES
1,1.9,"C[C@@H]1CC(NC(=O)c2cc(C3CC3)on2)CCN1C(=O)[C@@H]1CC[C@H](N)C1 (stereo partly drawn) [compound 96, N-((2R)-1-((1R,3S)-3-aminocyclopentane-1-carbonyl)-2-methylpiperidin-4-yl)-5-cyclopropylisoxazole-3-carboxamide]"
2,0.779,"C[C@@H]1CC(NC(=O)c2cc(C3CC3)on2)CCN1C(=O)[C@H]1C[C@H](N)C1 (stereo partly drawn) [compound 97, N-((2R)-1-((1r,3R)-3-aminocyclobutane-1-carbonyl)-2-methylpiperidin-4-yl)-5-cyclopropylisoxazole-3-carboxamide]"
3,0.655,"CCCC1CC(NC(=O)c2cc(C3CC3)on2)CCN1C(=O)[C@H]1CC[C@H](N)CC1 (stereo partly drawn) [compound 98, N-(1-((1r,4r)-4-aminocyclohexane-1-carbonyl)-2-propylpiperidin-4-yl)-5-cyclopropylisoxazole-3-carboxamide]"
4,2.2,"N[C@H]1CC[C@H](C(=O)N2CCC(NC(=O)c3cc(C4CC4)on3)CC23CCC3)CC1 (stereo partly drawn) [compound 100, N-(5-((1r,4r)-4-aminocyclohexane-1-carbonyl)-5-azaspiro[3.5]nonan-8-yl)-5-cyclopropylisoxazole-3-carboxamide]"
5,1.45,"C[C@H]1CC(NC(=O)c2cc(C3CC3)on2)CCN1C(=O)CC(C)(C)CN (stereo partly drawn) [compound 103, N-((2S)-1-(4-amino-3,3-dimethylbutanoyl)-2-methylpiperidin-4-yl)-5-cyclopropylisoxazole-3-carboxamide]"
6,0.566,"C[C@@H]1CC(NC(=O)c2cc(C3CC3)on2)CCN1C(=O)CC(C)(C)CN (stereo partly drawn) [compound 104, N-((2R)-1-(4-amino-3,3-dimethylbutanoyl)-2-methylpiperidin-4-yl)-5-cyclopropylisoxazole-3-carboxamide]"
7,20,"C[C@H]1CC(NC(=O)c2cc(C3CC3)on2)CCN1C(=O)[C@H]1CC[C@H](N(C)C)CC1 (stereo partly drawn) [compound 105, 5-cyclopropyl-N-((2S)-1-((1r,4S)-4-(dimethylamino)cyclohexane-1-carbonyl)-2-methylpiperidin-4-yl)isoxazole-3-carboxamide]"
8,3.52,"C[C@H]1CC(NC(=O)c2cc(C3CC3)on2)CCN1C(=O)[C@H]1CCC[C@H](N)C1 (stereo partly drawn) [compound 106, N-((2S)-1-((1S,3S)-3-aminocyclohexane-1-carbonyl)-2-methylpiperidin-4-yl)-5-cyclopropylisoxazole-3-carboxamide]"
9,2.52,"C[C@@H]1CC(NC(=O)c2cc(C3CC3)on2)CCN1C(=O)C1CCCNC1 (stereo partly drawn) [compound 107, 5-cyclopropyl-N-((2R)-2-methyl-1-(piperidine-3-carbonyl)piperidin-4-yl)isoxazole-3-carboxamide]"
10,1.42,"N[C@H]1CC[C@H](C(=O)N2CCC(NC(=O)c3cc(C4CC4)on3)CC2Cc2ccccc2)CC1 (stereo partly drawn) [compound 108, N-(1-((1r,4r)-4-aminocyclohexane-1-carbonyl)-2-benzylpiperidin-4-yl)-5-cyclopropylisoxazole-3-carboxamide]"
11,2.47,"NC[C@H](Cc1ccc(O)c(C(F)(F)F)c1)C(=O)N1CCC(NC(=O)c2cc(C3CC3)on2)CC1 [compound 111, (S)-N-(1-(3-amino-2-(4-hydroxy-3-(trifluoromethyl)benzyl)propanoyl)piperidin-4-yl)-5-cyclopropylisoxazole-3-carboxamide]"
12,1.09,"CC(C)c1cc(C[C@H](CN)C(=O)N2CCC(NC(=O)c3cc(C4CC4)on3)CC2)ccc1O [compound 112, (R)-N-(1-(3-amino-2-(4-hydroxy-3-isopropylbenzyl)propanoyl)piperidin-4-yl)-5-cyclopropylisoxazole-3-carboxamide]"
13,4.59,"C[C@@H]1CC(NC(=O)c2cc(C3CC3)on2)CCN1C[C@H]1CC[C@H](N)CC1 (stereo partly drawn) [compound 113, N-((2R)-1-(((1r,4R)-4-aminocyclohexyl)methyl)-2-methylpiperidin-4-yl)-5-cyclopropylisoxazole-3-carboxamide]"
14,1.31,"CC1(C)CC(NC(=O)c2cc(C3CC3)on2)CCN1C(=O)[C@H]1CC[C@H](N)CC1 (stereo partly drawn) [compound 114, N-(1-((1r,4r)-4-aminocyclohexane-1-carbonyl)-2,2-dimethylpiperidin-4-yl)-5-cyclopropylisoxazole-3-carboxamide]"
15,0.472,"C[C@H]1CC(NC(=O)c2cc(C3CC3)on2)CCN1C(=O)CC1(C)CCNCC1 (stereo partly drawn) [compound 115, 5-cyclopropyl-N-((2S)-2-methyl-1-(2-(4-methylpiperidin-4-yl)acetyl)piperidin-4-yl)isoxazole-3-carboxamide]"
16,2.91,"C[C@@H]1CC(NC(=O)c2cc(C3CC3)on2)CCN1C(=O)CC1(C)CCNCC1 (stereo partly drawn) [compound 116, 5-cyclopropyl-N-((2R)-2-methyl-1-(2-(4-methylpiperidin-4-yl)acetyl)piperidin-4-yl)isoxazole-3-carboxamide]"
17,5.6,"C[C@H]1CC(NC(=O)c2cc(C3CC3)on2)CCN1C(=O)[C@H]1CCC[C@@H](N)C1 (stereo partly drawn) [compound 117, N-((2S)-1-((1S,3R)-3-aminocyclohexane-1-carbonyl)-2-methylpiperidin-4-yl)-5-cyclopropylisoxazole-3-carboxamide]"
18,2.99,"CCOC(=O)C1CN(C(=O)CC2CCNCC2)CCC1NC(=O)c1cc(C2CC2)on1 (stereo not drawn) [compound 119, ethyl 4-(5-cyclopropylisoxazole-3-carboxamido)-1-(2-(piperidin-4-yl)acetyl)piperidine-3-carboxylate]"
19,0.0816,"NC[C@@H](Cc1ccc(O)c(C(F)(F)F)c1)C(=O)N1CCC(NC(=O)c2cc(C3CC3)on2)CC1 [compound 120, (R)-N-(1-(3-amino-2-(4-hydroxy-3-(trifluoromethyl)benzyl)propanoyl)piperidin-4-yl)-5-cyclopropylisoxazole-3-carboxamide]"
20,0.851,"C[C@@H]1CC(NC(=O)c2cc(C3CC3)on2)CCN1C(=O)N1CCC(N)CC1 (stereo partly drawn) [compound 122, N-((2R)-1-(4-aminopiperidine-1-carbonyl)-2-methylpiperidin-4-yl)-5-cyclopropylisoxazole-3-carboxamide]"
21,1.17,"N[C@H]1CC[C@H](C(=O)N2CC3CC2CC3NC(=O)c2cc(C3CC3)on2)CC1 (stereo partly drawn) [compound 123, N-(2-((1r,4r)-4-aminocyclohexane-1-carbonyl)-2-azabicyclo[2.2.1]heptan-5-yl)-5-cyclopropylisoxazole-3-carboxamide]"
22,0.844,"C[C@H]1CC(NC(=O)c2cc(C3CC3)on2)CCN1C(=O)CC1CC2CCC(C1)N2 (stereo partly drawn) [compound 128, N-((2S)-1-(2-(8-azabicyclo[3.2.1]octan-3-yl)acetyl)-2-methylpiperidin-4-yl)-5-cyclopropylisoxazole-3-carboxamide]"
23,0.595,"C[C@@H]1CC(NC(=O)c2cc(C3CC3)on2)CCN1C(=O)CC1CC2CCC(C1)N2 (stereo partly drawn) [compound 129, N-((2R)-1-(2-(8-azabicyclo[3.2.1]octan-3-yl)acetyl)-2-methylpiperidin-4-yl)-5-cyclopropylisoxazole-3-carboxamide]"
24,1.3,"C[C@H]1CC(NC(=O)c2cc(C3CC3)on2)CCN1C(=O)C1CC2(CC(N)C2)C1 (stereo partly drawn) [compound 130, N-((2S)-1-(6-aminospiro[3.3]heptane-2-carbonyl)-2-methylpiperidin-4-yl)-5-cyclopropylisoxazole-3-carboxamide]"
25,2.08,"C[C@H]1CC(NC(=O)c2cc(C3CC3)on2)CCN1C(=O)[C@H]1CC[C@H](N)CO1 (stereo partly drawn) [compound 131, N-((2S)-1-((2R,5S)-5-aminotetrahydro-2H-pyran-2-carbonyl)-2-methylpiperidin-4-yl)-5-cyclopropylisoxazole-3-carboxamide]"
26,5.55,"C[C@H]1CC(NC(=O)c2cc(C3CC3)on2)CCN1C(=O)C1CCCNC1 (stereo partly drawn) [compound 132, 5-cyclopropyl-N-((2S)-2-methyl-1-(piperidine-3-carbonyl)piperidin-4-yl)isoxazole-3-carboxamide]"
27,6.24,"C[C@H]1CC(NC(=O)c2cc(C3CC3)on2)CCN1C(=O)C[C@H](O)CCN (stereo partly drawn) [compound 133, N-((2S)-1-((R)-5-amino-3-hydroxypentanoyl)-2-methylpiperidin-4-yl)-5-cyclopropylisoxazole-3-carboxamide]"
28,1.86,"C[C@@H]1CC(NC(=O)c2cc(C3CC3)on2)CCN1C(=O)C[C@H](O)CCN (stereo partly drawn) [compound 134, N-((2R)-1-((R)-5-amino-3-hydroxypentanoyl)-2-methylpiperidin-4-yl)-5-cyclopropylisoxazole-3-carboxamide]"
29,2.49,"C[C@@H]1CC(NC(=O)c2cc(C3CC3)on2)CCN1C(=O)C1CNCC(O)C1 (stereo partly drawn) [compound 135, 5-cyclopropyl-N-((2R)-1-(5-hydroxypiperidine-3-carbonyl)-2-methylpiperidin-4-yl)isoxazole-3-carboxamide]"

row,SMILES,IC50 [µM]
1,"N[C@H]1CC[C@H](C(=O)N2[C@@H]3CC[C@H]2C[C@H](NC(=O)c2cc(C4CC4)on2)C3)CC1 [compound 101, N-((1R,3S,5S)-8-((1r,4R)-4-aminocyclohexane-1-carbonyl)-8-azabicyclo[3.2.1]octan-3-yl)-5-cyclopropylisoxazole-3-carboxamide]",> 10
2,"O=C(NC1CC2CCCC(C1)N2C(=O)CC1CCNCC1)c1cc(C2CC2)on1 (stereo not drawn) [compound 125, 5-cyclopropyl-N-(9-(2-(piperidin-4-yl)acetyl)-9-azabicyclo[3.3.1]nonan-3-yl)isoxazole-3-carboxamide]",7.76
3,"O=C(N[C@@H]1C[C@H]2CC[C@@H](C1)N2C(=O)CC1CCNCC1)c1cc(C2CC2)on1 [compound 126, 5-cyclopropyl-N-((1R,3s,5S)-8-(2-(piperidin-4-yl)acetyl)-8-azabicyclo[3.2.1]octan-3-yl)isoxazole-3-carboxamide]",9.86
4,"O=C(N[C@H]1C[C@H]2CC[C@@H](C1)N2C(=O)CC1CCNCC1)c1cc(C2CC2)on1 [compound 127, 5-cyclopropyl-N-((1R,3r,5S)-8-(2-(piperidin-4-yl)acetyl)-8-azabicyclo[3.2.1]octan-3-yl)isoxazole-3-carboxamide]",1.28
